# Experimental data: ChEMBL document CHEMBL1126329, “Azasugar and glycal inhibitors of -L-fucosidase” (Bioorg Med Chem Lett, 1992)
# Biological target: T1, Tissue alpha-L-fucosidase (Homo sapiens, UniProt P04066)
# T1 sequence (P04066 whole entry): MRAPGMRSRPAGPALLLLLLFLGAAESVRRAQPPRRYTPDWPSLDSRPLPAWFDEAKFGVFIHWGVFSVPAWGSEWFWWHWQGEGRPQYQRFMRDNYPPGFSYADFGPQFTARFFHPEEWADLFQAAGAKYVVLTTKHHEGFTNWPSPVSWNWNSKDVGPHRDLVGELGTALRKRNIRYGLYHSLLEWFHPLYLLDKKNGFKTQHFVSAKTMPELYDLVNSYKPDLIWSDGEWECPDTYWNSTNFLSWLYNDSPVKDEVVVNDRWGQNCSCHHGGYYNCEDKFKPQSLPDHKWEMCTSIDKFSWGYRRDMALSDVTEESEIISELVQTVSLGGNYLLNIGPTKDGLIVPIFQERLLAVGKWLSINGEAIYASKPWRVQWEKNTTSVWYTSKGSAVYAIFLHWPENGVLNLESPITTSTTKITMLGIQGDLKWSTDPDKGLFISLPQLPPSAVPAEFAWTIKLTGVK
# Assay: Inhibition constant against Alpha-Fucosidase
row,SMILES,Ki [mM]
1,CC1=COC(c2ccccc2)C(C)C1O (stereo in doubt; 26),> 100
2,OCC1NC(CO)C(O)C1O (configuration not stated),0.91
3,C[C@@H]1OC=C[C@@H](O)[C@@H]1O,0.05
4,OC1C=COC(c2ccccc2)C1OCc1ccccc1 (configuration not stated),> 100
5,CN1CC(O)C(O)C(O)C1CO (configuration not stated),5.3
6,CC(=O)C1C(O)C=COC1C (configuration not stated),0.09
7,CC1=COC(c2ccccc2)C(C)C1O (stereo in doubt; 21),> 100
8,C[C@@H]1N[C@@H](CO)[C@H](O)[C@@H]1O,0.004
9,CC(=O)C1C(O)C=COC1c1ccccc1 (configuration not stated),> 100
10,OC1C=COC(c2ccccc2)C1 (configuration not stated),> 100

# Biological target: T1, Tissue alpha-L-fucosidase
# Assay: Inhibition constant against Alpha-Fucosidase; Uncompetitive inhibition
row,SMILES,Ki [mM]
1,OC1C=COC(c2ccccc2)C1O (stereo in doubt; 23),83
2,OC1C=COC(c2ccccc2)C1O (stereo in doubt; 25),22
3,CC(=O)C1C(O)C=COC1C (configuration not stated),26
4,C[C@H]1OC=C[C@@H](O)[C@H]1O (stereo in doubt; 19),35
5,C[C@H]1OC=C[C@@H](O)[C@H]1O (stereo in doubt; 24),23

# Biological target: T2, Tissue alpha-L-fucosidase (Homo sapiens) (UniProt P04066)
# T2 sequence (whole entry): T1 sequence (P04066 whole entry)
# Description: Slope inhibition constant against Alpha-Fucosidase; Uncompetitive inhibition
row,SMILES,Kis [mM]
1,Oc1ccccc1,0.18

# Biological target: T2, Tissue alpha-L-fucosidase (Homo sapiens)
# Remark: another data set of the same source
# Description: Intecept inhibition constant against Alpha-Fucosidase; Noncompetitive inhibition
row,SMILES,Kii [mM]
1,Oc1ccccc1,112
